What was measured:
MMP's 1, 2, 8 and 9 = details: topical; rat cornea; animals with epithelial defects and with intact epithelium; cited from earlier work
MMPs 1, 2 and 8 = details: rat corneas; cited from earlier work
[1] = in vivo; cited from earlier work
[2] = test system: matrix metalloproteinases; assay: Activation of matrix metalloproteinases by gatifloxacin (established by the inventor)

For O=C(O)c1cn(C2CC2)c2cc(N3CCNCC3)c(F)cc2c1=O [ciprofloxacin], the “MMP levels in corneal epithelium and anterior stroma” value (MMP's 1, 2, 8 and 9) is listed as “increased”.
For O=C(O)Cc1ccccc1Nc1c(Cl)cccc1Cl [Diclofenac], the “expression of MMPs 1, 2 and 8” value (MMPs 1, 2 and 8) is listed as “induce expression”.
In the case of O=C(c1ccccc1)c1ccc2n1CCC2C(=O)O (stereo not drawn) [ketorolac], the “expression of MMPs 1, 2 and 8” value (MMPs 1, 2 and 8) is listed as “induce expression”.
In the case of C[C@H]1c2cccc(O)c2C(O)=C2C(=O)[C@]3(O)C(O)=C(C(N)=O)C(=O)[C@@H](N(C)C)[C@@H]3[C@@H](O)[C@@H]21 [doxycyline, doxycycline], the corneal penetration [1] is listed as “penetrate the cornea well” and the tolerability [1] is listed as “well tolerated”.
In the case of COc1c(N2CCNC(C)C2)c(F)cc2c(=O)c(C(=O)O)cn(C3CC3)c12 (stereo not drawn) [gatifloxacin], the “activation of matrix metalloproteinases” value [2] is reported as “capable of activating matrix metalloproteinases”.

Source: patent US20150164791A1, “CORNEAL SHAPING” (priority 2005, published 2015)
